Test results: EP4682145A1, “BENZOHETEROCYCLIC COMPOUND, AND PREPARATION METHOD THEREFOR AND USE THEREOF” (Cascade Pharmaceuticals, Inc., priority 2023, dated 2024)

Target: T1, human FFAR1 (GPR40) (Homo sapiens, UniProt O14842)
T1 construct: Flag; expressed in transfected cells; host or cells: HEK293T
Assay: NFAT-RE-based reporter gene activity assay (Dual-Glo luciferase) for GPR40 agonistic activity in co-transfected HEK293T cells
Format: cell-based
Conditions: 4-hour treatment; for Efficacy (%): class symbols
Method in brief: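 Agonism read as NFAT-RE-driven firefly luciferase over Renilla control (Dual-Glo) after 4 h compound exposure, top concentration 1 µM, 10 half-log steps.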

T1 sequence (O14842 whole entry): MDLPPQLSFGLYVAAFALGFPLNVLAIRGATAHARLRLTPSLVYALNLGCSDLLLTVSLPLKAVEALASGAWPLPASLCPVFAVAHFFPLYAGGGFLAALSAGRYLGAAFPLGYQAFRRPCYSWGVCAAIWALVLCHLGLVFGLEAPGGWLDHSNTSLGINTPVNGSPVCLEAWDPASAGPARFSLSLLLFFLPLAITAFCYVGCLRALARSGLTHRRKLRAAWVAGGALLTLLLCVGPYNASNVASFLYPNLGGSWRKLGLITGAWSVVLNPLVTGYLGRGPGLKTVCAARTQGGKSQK

| SMILES | EC50 | Efficacy (%) |
| --- | --- | --- |
| COc1cc(N2CCC(c3oc4cc(C(CC(=O)O)C5CC5)ccc4c3-c3ccc(C(C)(C)C)cc3)CC2)ccc1F (stereo not drawn) [Compound 206] | 100 to 500 nM | †† (150 ≥ Efficacy (%) > 100) |
| COc1cccc(N2CCC(c3oc4cc([C@@H](CC(=O)O)C5CC5)ccc4c3-c3nc4ccccc4s3)CC2)c1 [Compound 152] | 100 to 500 nM | †† (150 ≥ Efficacy (%) > 100) |
| COc1cccc(N2CCC(c3oc4cc([C@@H](CC(=O)O)C5CC5)ccc4c3C(OCC(C)C)c3ccccc3)CC2)c1 (stereo partly drawn) [Compound 426] | 10 to 100 nM | ††† (Efficacy (%) > 150) |
| CCCCCCC(C)(C)c1nnc(-c2c(C3CCN(c4cccc(OC)c4)CC3)oc3cc(C(CC(=O)O)C4CC4)ccc23)o1 (stereo not drawn) [Compound 452] | 10 to 100 nM | †† (150 ≥ Efficacy (%) > 100) |
| CCCCCC(C)(C)c1nnc(-c2c(C3CCN(c4cccc(OC)c4)CC3)oc3cc(C(CC(=O)O)C4CC4)ccc23)o1 (stereo not drawn) [Compound 131] | 10 to 100 nM | †† (150 ≥ Efficacy (%) > 100) |
| COc1cccc(N2CCC(c3oc4cc(C(CC(=O)O)C5CC5)ccc4c3C(=CCC(C)C)c3ccccc3)CC2)c1 (stereo not drawn) [Compound 377] | 10 to 100 nM | †† (150 ≥ Efficacy (%) > 100) |
| CC(C)(C)n1cc(-c2c(C3CCN(c4ccc5c(c4)OC(F)(F)O5)CC3)oc3cc([C@@H](CC(=O)O)C4CC4)ccc23)cn1 [Compound 96] | 100 to 500 nM | ††† (Efficacy (%) > 150) |
| COc1cccc(N2CCC(c3oc4cc(C(CC(=O)O)C5CC5)ccc4c3C(=O)Nc3cc(C(C)(C)C)on3)CC2)c1 (stereo not drawn) [Compound 300] | 100 to 500 nM | †† (150 ≥ Efficacy (%) > 100) |
| COc1cccc(N2CCC(c3oc4cc(C(CC(=O)O)C5CC5)ccc4c3C(=O)NC34CC5CC(C)(CC(C)(C5)C3)C4)CC2)c1 (stereo not drawn) [Compound 351] | 10 to 100 nM | †† (150 ≥ Efficacy (%) > 100) |
| COc1ccc(F)c(N2CCC(c3oc4cc([C@@H](CC(=O)O)C5CC5)ccc4c3C(=O)Nc3cc(C(F)(F)F)ccc3Cl)CC2)c1 [Compound 340] | < 10 nM | ††† (Efficacy (%) > 150) |
| COc1ccc(F)c(N2CCC(c3oc4cc(C(CC(=O)O)C5CC5)ccc4c3C(=O)Nc3ccc(C)cc3)CC2)c1 (stereo not drawn) [Compound 321] | 100 to 500 nM | †† (150 ≥ Efficacy (%) > 100) |
| CC(C)(C)c1cccc(-c2c(C3CCN(c4cccc(F)c4)CC3)oc3cc(C(CC(=O)O)C4CC4)ccc23)c1 (stereo not drawn) [Compound 8] | > 500 nM | †† (150 ≥ Efficacy (%) > 100) |
| CCc1cccc(NC(=O)c2c(C3CCN(c4cccc(OC)c4)CC3)oc3cc(C(CC(=O)O)C4CC4)ccc23)c1 (stereo not drawn) [Compound 243] | > 500 nM | †† (150 ≥ Efficacy (%) > 100) |
| COc1cccc(N2CCC(c3oc4cc([C@@H](CC(=O)O)C5CC5)ccc4c3-c3cnc(C(C)(C)C)s3)CC2)c1 [Compound 103] | 10 to 100 nM | †† (150 ≥ Efficacy (%) > 100) |
| COc1cccc(N2CCC(c3oc4cc([C@@H](CC(=O)O)C5CC5)ccc4c3/C=C/C(C)(C)C)CC2)c1 [Compound 361] | 10 to 100 nM | †† (150 ≥ Efficacy (%) > 100) |
| CC(C)(C)c1nnc(-c2c(C3CCN(c4ccc5c(c4)OCO5)CC3)oc3cc([C@@H](CC(=O)O)C4CC4)ccc23)o1 [Compound 143] | 10 to 100 nM | †† (150 ≥ Efficacy (%) > 100) |
| COc1ccc(F)c(N2CCC(c3oc4cc(C(CC(=O)O)C5CC5)ccc4c3-c3cnn(-c4ccccc4)c3)CC2)c1 (stereo not drawn) [Compound 99] | 100 to 500 nM | †† (150 ≥ Efficacy (%) > 100) |
| CCCCCCCC(C)(C)c1nnc(-c2c(C3CCN(c4cccc(OC)c4)CC3)oc3cc(C(CC(=O)O)C4CC4)ccc23)o1 (stereo not drawn) [Compound 451] | 10 to 100 nM | †† (150 ≥ Efficacy (%) > 100) |
| COc1ccc(F)c(N2CCC(c3oc4cc([C@@H](CC(=O)O)C5CC5)ccc4c3-c3ccc(C(=O)NCC(C)(C)C)cc3)CC2)c1 [Compound 198] | 100 to 500 nM | †† (150 ≥ Efficacy (%) > 100) |
| COc1cccc(N2CCC(c3oc4cc(C(CC(=O)O)C5CC5)ccc4c3C(=O)Nc3noc4ccccc34)CC2)c1 (stereo not drawn) [Compound 296] | 100 to 500 nM | ††† (Efficacy (%) > 150) |
| COc1ccc(F)c(N2CCC(c3oc4cc(C(CC(=O)O)C5CC5)ccc4c3-c3ccc(NC(C)C)cc3)CC2)c1 (stereo not drawn) [Compound 184] | 100 to 500 nM | † (100 ≥ Efficacy (%) > 50) |
| COc1ccc(F)c(N2CCC(c3oc4cc(C(CC(=O)O)C5CC5)ccc4c3C3=CCC(C(C)(C)C)CC3)CC2)c1 (stereo not drawn) [Compound 380] | > 500 nM | †† (150 ≥ Efficacy (%) > 100) |
| COc1cccc(N2CCC(c3oc4cc([C@@H](CC(=O)O)C5CC5)ccc4c3-c3csc(C(C)C)n3)CC2)c1 [Compound 107] | 100 to 500 nM | ††† (Efficacy (%) > 150) |
| COc1cccc(N2CCC(c3oc4cc([C@@H](CC(=O)O)C5CC5)ccc4c3CN(CC(C)(C)C)c3cccc(Cl)c3)CC2)c1 [Compound 447] | 100 to 500 nM | †† (150 ≥ Efficacy (%) > 100) |

| SMILES | EC50 | Efficacy (%) |
| --- | --- | --- |
| COc1ccc(F)c(N2CCC(c3oc4cc(C(CC(=O)O)C5CC5)ccc4c3-c3ccccc3)CC2)c1 (stereo not drawn) [Compound 156] | 100 to 500 nM | †† (150 ≥ Efficacy (%) > 100) |
| COc1cccc(N2CCC(c3oc4cc([C@@H](CC(=O)O)C5CC5)ccc4c3-c3cncc(C)c3)CC2)c1 [Compound 144] | > 500 nM | †† (150 ≥ Efficacy (%) > 100) |
| CCn1cc(-c2c(C3CCN(c4cccc(OC)c4)CC3)oc3cc(C(CC(=O)O)C4CC4)ccc23)cn1 (stereo not drawn) [Compound 37] | 100 to 500 nM | †† (150 ≥ Efficacy (%) > 100) |
| COc1cccc(N2CCC(c3oc4cc(C(CC(=O)O)C5CC5)ccc4c3-c3cnn(C(C)(C)C)c3)CC2)n1 (stereo not drawn) [Compound 79] | 100 to 500 nM | †† (150 ≥ Efficacy (%) > 100) |
| COc1cccc(N2CCC(c3oc4cc(C(CC(=O)O)C5CC5)ccc4c3-c3cnn(C(C)(C)C)c3)CC2)c1F (stereo not drawn) [Compound 86] | 10 to 100 nM | ††† (Efficacy (%) > 150) |
| COc1cccc(N2CCC(c3oc4cc(C(CC(=O)O)C5CC5)ccc4c3-c3nnc(C(C)(C)C(F)(F)F)o3)CC2)c1 (stereo not drawn) [Compound 126] | 10 to 100 nM | †† (150 ≥ Efficacy (%) > 100) |
| COc1ccc(F)c(N2CCC(c3oc4cc(C(CC(=O)O)C5CC5)ccc4c3C(=O)NCC(C)C)CC2)c1 (stereo not drawn) [Compound 310] | 100 to 500 nM | †† (150 ≥ Efficacy (%) > 100) |
| COc1cccc(N2CCC(c3oc4cc([C@@H](CC(=O)O)C5CC5)ccc4c3COC(=O)C(C)(C)C)CC2)c1 [Compound 398] | 100 to 500 nM | ††† (Efficacy (%) > 150) |
| COc1cccc(N2CCC(c3oc4cc([C@@H](CC(=O)O)C5CC5)ccc4c3-c3cc(C)ccn3)CC2)c1 [Compound 146] | 100 to 500 nM | ††† (Efficacy (%) > 150) |
| COc1cccc(N2CCC(c3oc4cc([C@@H](CC(=O)O)C5CC5)ccc4c3C(OCC(C)C)c3ccccc3F)CC2)c1 (stereo partly drawn) [Compound 432] | 10 to 100 nM | ††† (Efficacy (%) > 150) |
| COc1cccc(N2CCC(c3oc4cc([C@@H](CC(=O)O)C5CC5)ccc4c3C(=O)Nc3ccccc3C(F)(F)F)CC2)c1 [Compound 238] | 10 to 100 nM | ††† (Efficacy (%) > 150) |
| COc1cccc(N2CCC(c3oc4cc([C@@H](CC(=O)O)C5CC5)ccc4c3C(=O)Nc3cc(C(F)(F)F)ccc3F)CC2)c1 [Compound 261] | ≤ 10 nM | ††† (Efficacy (%) > 150) |
| Cc1ccccc1NC(=O)c1c(C2CCN(c3ccc4c(c3)OCO4)CC2)oc2cc([C@@H](CC(=O)O)C3CC3)ccc12 [Compound 330] | 10 to 100 nM | †† (150 ≥ Efficacy (%) > 100) |
| COc1cccc(N2CCC(c3oc4cc([C@@H](CC(=O)O)C5CC5)ccc4c3-c3cccc(NC(C)C)c3)CC2)c1 [Compound 34] | 10 to 100 nM | †† (150 ≥ Efficacy (%) > 100) |
| CC(C)(C)c1cccc(-c2c(C3CCN(c4ccccc4OC(F)(F)F)CC3)oc3cc(C(CC(=O)O)C4CC4)ccc23)c1 (stereo not drawn) [Compound 23] | 100 to 500 nM | †† (150 ≥ Efficacy (%) > 100) |
| COc1cccc(N2CCC(c3oc4cc([C@@H](CC(=O)O)C5CC5)ccc4c3-c3cc4ccccc4[nH]3)CC2)c1 [Compound 150] | 100 to 500 nM | †† (150 ≥ Efficacy (%) > 100) |
| COc1ccc(F)c(N2CCC(c3oc4cc(C(CC(=O)O)C5CC5)ccc4c3-c3ccc(C(C)C)cc3)CC2)c1 (stereo not drawn) [Compound 163] | 100 to 500 nM | †† (150 ≥ Efficacy (%) > 100) |
| COc1cccc(N2CCC(c3oc4cc([C@@H](CC(=O)O)C5CC5)ccc4c3-c3nnc(C(C)(C)C)o3)CC2)c1F [Compound 141] | ≤ 10 nM | ††† (Efficacy (%) > 150) |
| COc1cccc(N2CCC(c3oc4cc([C@@H](CC(=O)O)C5CC5)ccc4c3C(=O)Nc3cc(Cl)ccc3Cl)CC2)c1 [Compound 267] | ≤ 10 nM | ††† (Efficacy (%) > 150) |
| COc1ccc(F)c(N2CCC(c3oc4cc(C(CC(=O)O)C5CC5)ccc4c3-c3cccc(N4CCCC4(C)C)c3)CC2)c1 (stereo not drawn) [Compound 192] | 100 to 500 nM | †† (150 ≥ Efficacy (%) > 100) |
| COc1cccc(N2CCC(c3oc4cc(C(CC(=O)O)C5CC5)ccc4c3C(=O)Nc3c(F)cc(F)cc3F)CC2)c1 (stereo not drawn) [Compound 288] | 100 to 500 nM | †† (150 ≥ Efficacy (%) > 100) |
| COc1cccc(N2CCC(c3oc4cc([C@@H](CC(=O)O)C5CC5)ccc4c3C(C)OCC(C)C)CC2)c1 (stereo partly drawn) [Compound 409] | 10 to 100 nM | ††† (Efficacy (%) > 150) |
| COc1cc(OC)cc(N2CCC(c3oc4cc(C(CC(=O)O)C5CC5)ccc4c3-c3ccc(C(C)(C)C)cc3)CC2)c1 (stereo not drawn) [Compound 205] | 100 to 500 nM | † (100 ≥ Efficacy (%) > 50) |
| COc1cccc(N2CCC(c3oc4cc([C@@H](CC(=O)O)C5CC5)ccc4c3-c3nc(C(C)(C)C)cs3)CC2)c1 [Compound 110] | 10 to 100 nM | †† (150 ≥ Efficacy (%) > 100) |
